Measurements reported in ChEMBL document CHEMBL4483862, “Open-source discovery of chemical leads for next-generation chemoprotective antimalarials” (2018).

Tested on: Plasmodium berghei
Assay: Luciferase/luciferin-expressing antifolate-resistant parasites were used to infect a culture of HepG2 cells that were pre-incubated with compounds. Infected hepatocytes emit light due to the luciferase reaction. Assay results are presented as the percent inhibition of light emission compared to control. […]
Assay type: functional
Conditions: sporozoite; for IC90: read-out: LUCIFERASE INFECTION ASSAY - IC90

SMILES: O=C(Nc1cc(C(F)(F)F)cc(C(F)(F)F)c1)Nc1cnn(-c2ccc([N+](=O)[O-])cc2)c1C(F)(F)F
- IC50 (PBLUC_HILL_SLOPE 8.84, PBLUC_R_SQUARED 0.29, read-out: LUCIFERASE INFECTION ASSAY - IC50): 2.5 µM
- IC90: 3.21 µM

SMILES: CCCc1cc(NCc2ccccn2)n2nc(C)c(-c3ccccc3)c2n1
- IC50 (PBLUC_HILL_SLOPE 8.47, PBLUC_R_SQUARED 0.549, read-out: LUCIFERASE INFECTION ASSAY - IC50): 3.45 µM
- IC90: 4.47 µM

SMILES: CCN(CC)CCNC(=O)c1ccc(NC(=O)c2cccc(S(=O)(=O)N3CCc4ccccc43)c2)cc1
- IC50 (PBLUC_HILL_SLOPE 8.86, PBLUC_R_SQUARED 0.0114, read-out: LUCIFERASE INFECTION ASSAY - IC50): > 10 µM
- IC90: > 10 µM

SMILES: CCCNc1cc(-c2ccccc2)nc(-n2nc(C)cc2C)n1
- IC50 (PBLUC_HILL_SLOPE 8.43, PBLUC_R_SQUARED 0.511, read-out: LUCIFERASE INFECTION ASSAY - IC50): 3.27 µM
- IC90: 4.24 µM

SMILES: COc1cc(-c2cnc3cnc(-c4ccc(N5CCN(C)CC5)nc4)cn23)ccc1O
- IC50 (PBLUC_HILL_SLOPE 8.9, PBLUC_R_SQUARED 0.156, read-out: LUCIFERASE INFECTION ASSAY - IC50): 7.05 µM
- IC90: > 7.92 µM

SMILES: O=C(CCn1ccc2ccccc21)NC(Cc1ncc[nH]1)c1ccccc1 (stereo not given)
- IC50 (PBLUC_HILL_SLOPE 8.72, PBLUC_R_SQUARED 0.12, read-out: LUCIFERASE INFECTION ASSAY - IC50): 3.72 µM
- IC90: 4.79 µM

SMILES: CNC(=O)c1cccc(-c2ccc3ncc(-c4cccc(OC(F)(F)F)c4)n3n2)c1
- IC50 (PBLUC_HILL_SLOPE 8.51, PBLUC_R_SQUARED 0.256, read-out: LUCIFERASE INFECTION ASSAY - IC50): 3.77 µM
- IC90: 4.88 µM

SMILES: C=CCN(CC=C)C(CNc1ccc2nnc(C(F)(F)F)n2n1)C(C)C (stereo not given)
- IC50 (PBLUC_HILL_SLOPE 8.1, PBLUC_R_SQUARED 0.171, read-out: LUCIFERASE INFECTION ASSAY - IC50): 8.34 µM
- IC90: > 10 µM

SMILES: COc1cc(Nc2nccc3c2cc(-c2ccc(C(=O)N(C)C)cc2)n3C)cc(C(F)(F)F)c1
- IC50 (PBLUC_HILL_SLOPE 8.8, PBLUC_R_SQUARED 0.371, read-out: LUCIFERASE INFECTION ASSAY - IC50): 3.62 µM
- IC90: 4.64 µM

SMILES: O=C(Cn1ncc(Cl)c(Cl)c1=O)N(Cc1cccs1)c1ccc2c(c1)OCCO2
- IC50 (PBLUC_HILL_SLOPE 8.55, 0.379, PBLUC_R_SQUARED 0.113, 0.341, read-out: LUCIFERASE INFECTION ASSAY - IC50): 6.34 µM
- IC90: > 10 µM

SMILES: CCCCCc1ccc(C(=O)Nc2nc3ccccn3c2C(=O)NCCCN2CCOCC2)cc1
- IC50 (PBLUC_HILL_SLOPE 8.91, PBLUC_R_SQUARED 0.136, read-out: LUCIFERASE INFECTION ASSAY - IC50): 2.74 µM
- IC90: 3.5 µM

SMILES: Cc1nc2ccccn2c1-c1nc(CCC2CCCCC2)c(C(=O)c2c(C)[nH]c3ccccc23)s1
- IC50 (PBLUC_HILL_SLOPE 8.8, PBLUC_R_SQUARED 0.142, read-out: LUCIFERASE INFECTION ASSAY - IC50): 8.77 µM
- IC90: > 10 µM

SMILES: CCOC(=O)N1CCC(N/C=C(\C#N)S(=O)(=O)c2ccc(Cl)cc2)CC1
- IC50 (PBLUC_HILL_SLOPE 8.69, PBLUC_R_SQUARED 0.709, read-out: LUCIFERASE INFECTION ASSAY - IC50): 2.55 µM
- IC90: 3.29 µM

SMILES: CC(C)Cc1ccc(CN2CCc3c(c(C(=O)N(C)Cc4cscn4)nn3CC3CC3)C2)cc1
- IC50 (PBLUC_HILL_SLOPE 8.64, PBLUC_R_SQUARED 0.119, read-out: LUCIFERASE INFECTION ASSAY - IC50): 5.84 µM
- IC90: > 6.91 µM

SMILES: O=C(CSc1ccccc1)Nc1nc2ccccn2c1C(=O)NC1CCCC1
- IC50 (PBLUC_HILL_SLOPE 8.28, PBLUC_R_SQUARED 0.442, read-out: LUCIFERASE INFECTION ASSAY - IC50): 7.37 µM
- IC90: > 8.37 µM

SMILES: Cc1nc(NC(=O)c2ccc(C(C)(C)C)cc2)ccc1Br
- IC50 (PBLUC_HILL_SLOPE 8.59, PBLUC_R_SQUARED 0.6, read-out: LUCIFERASE INFECTION ASSAY - IC50): 7.43 µM
- IC90: > 9.5 µM

SMILES: COc1ccc(C(CNc2nc(-c3cccnc3)nc3ccccc23)c2c[nH]c3ccccc23)cc1 (stereo not given)
- IC50 (PBLUC_HILL_SLOPE 8.92, PBLUC_R_SQUARED 0.072, read-out: LUCIFERASE INFECTION ASSAY - IC50): > 10 µM
- IC90: > 10 µM

SMILES: Cc1nccc(-c2ccc(NC(=O)c3cc(S(=O)(=O)NCc4ccccc4)ccc3C)cc2)n1
- IC50 (PBLUC_HILL_SLOPE 8.64, PBLUC_R_SQUARED 0.681, read-out: LUCIFERASE INFECTION ASSAY - IC50): 8.33 µM
- IC90: > 10 µM

SMILES: CCCCN(C)CC(O)Cn1c2ccc(Br)cc2c2cc(Br)ccc21 (stereo not given)
- IC50 (PBLUC_HILL_SLOPE 8.48, PBLUC_R_SQUARED 0.699, read-out: LUCIFERASE INFECTION ASSAY - IC50): 5.83 µM
- IC90: > 7.05 µM

SMILES: CCC(CC)c1nn(CC(=O)c2cc(C)n(CCOC)c2C)c(=N)s1
- IC50 (PBLUC_HILL_SLOPE 8.4, PBLUC_R_SQUARED 0.0548, read-out: LUCIFERASE INFECTION ASSAY - IC50): 9.17 µM
- IC90: > 10 µM

SMILES: CCCCCCN(C(=O)COC(=O)c1c(C)[nH]c(C2CC2)nc1=O)c1nc(-c2ccccc2)cs1
- IC50 (PBLUC_HILL_SLOPE 8.31, PBLUC_R_SQUARED 0.597, read-out: LUCIFERASE INFECTION ASSAY - IC50): 3.53 µM
- IC90: 4.6 µM

SMILES: CCCCC(CC)C(=O)Nc1nc2ccccn2c1C(=O)NC1CCCCC1 (stereo not given)
- IC50 (PBLUC_HILL_SLOPE 8.64, PBLUC_R_SQUARED 0.333, read-out: LUCIFERASE INFECTION ASSAY - IC50): 8.01 µM
- IC90: > 8.58 µM

SMILES: CN(C)S(=O)(=O)c1ccc(SCC(=O)c2ccc(C(C)(C)C)cc2)nc1
- IC50 (PBLUC_HILL_SLOPE 8.24, PBLUC_R_SQUARED 0.558, read-out: LUCIFERASE INFECTION ASSAY - IC50): 3.87 µM
- IC90: 5.05 µM

SMILES: Oc1ccc(/C=N/n2c(-c3ccco3)cs/c2=N\c2ccc(F)cc2F)c(O)c1
- IC50 (PBLUC_HILL_SLOPE 8.45, PBLUC_R_SQUARED 0.234, read-out: LUCIFERASE INFECTION ASSAY - IC50): 8.99 µM
- IC90: > 10 µM

SMILES: COc1ccc(-c2cc([N+](=O)[O-])ccc2OCC(=O)NC(=O)NCCC(C)C)cc1
- IC50 (PBLUC_HILL_SLOPE 8.25, PBLUC_R_SQUARED 0.103, read-out: LUCIFERASE INFECTION ASSAY - IC50): 9.42 µM
- IC90: > 10 µM

SMILES: COc1ccccc1C1=NOC(=C2Sc3ccccc3C2=O)N1
- IC50 (PBLUC_HILL_SLOPE 8.91, PBLUC_R_SQUARED 0.334, read-out: LUCIFERASE INFECTION ASSAY - IC50): 3.55 µM
- IC90: 4.54 µM

SMILES: Cc1cccn2cc(CN3CCC(c4nc5ccccc5s4)CC3)nc12
- IC50 (PBLUC_HILL_SLOPE 8.96, 1.52, PBLUC_R_SQUARED 0.442, 0.954, read-out: LUCIFERASE INFECTION ASSAY - IC50): 2.59 µM
- IC90: 3.59 µM

SMILES: CC(C)n1ncc2c(C(=O)N3CCN(CC(=O)N4CCCC4)CC3)cc(-c3ccccc3)nc21
- IC50 (PBLUC_HILL_SLOPE 8.22, PBLUC_R_SQUARED 0.426, read-out: LUCIFERASE INFECTION ASSAY - IC50): 4.15 µM
- IC90: 5.42 µM

SMILES: Cc1nnc(SCc2cc(=O)n3nc(C)c(-c4ccc(F)cc4)c3[nH]2)s1
- IC50 (PBLUC_HILL_SLOPE 8.42, PBLUC_R_SQUARED 0.168, read-out: LUCIFERASE INFECTION ASSAY - IC50): 7.52 µM
- IC90: > 8.52 µM

SMILES: Nc1nc(SCC(=O)NC2CCCc3ccccc32)nc2sccc12 (stereo not given)
- IC50 (PBLUC_HILL_SLOPE 8.94, PBLUC_R_SQUARED 0.274, read-out: LUCIFERASE INFECTION ASSAY - IC50): 9.02 µM
- IC90: > 10 µM

SMILES: COC(=O)c1cc(CSc2nc3ccccc3c(=O)n2-c2ccc(OC)cc2)oc1C
- IC50 (PBLUC_HILL_SLOPE 8.32, PBLUC_R_SQUARED 0.0862, read-out: LUCIFERASE INFECTION ASSAY - IC50): > 10 µM
- IC90: > 10 µM

SMILES: CC(OC(=O)c1ccccc1Nc1ccccc1)C(=O)NC1CC1 (stereo not given)
- IC50 (PBLUC_HILL_SLOPE 8.51, PBLUC_R_SQUARED 0.0555, read-out: LUCIFERASE INFECTION ASSAY - IC50): 8.65 µM
- IC90: > 10 µM

SMILES: O=C(N/N=C/c1ccc(N2CCCCC2)s1)c1ccccc1O
- IC50 (PBLUC_HILL_SLOPE 8.76, 2.86, PBLUC_R_SQUARED 0.104, 0.555, read-out: LUCIFERASE INFECTION ASSAY - IC50): 3.37 µM
- IC90: 5.71 µM

SMILES: CCCn1c(NC(=O)c2oc3ccccc3c2COCC)nc2ccccc21
- IC50 (PBLUC_HILL_SLOPE 8.76, PBLUC_R_SQUARED 0.513, read-out: LUCIFERASE INFECTION ASSAY - IC50): 8.84 µM
- IC90: > 10 µM

SMILES: COc1ccc(-c2cnc3cnc(-c4ccc(C(=O)NCCO)cc4)cn23)cc1
- IC50 (PBLUC_HILL_SLOPE 8.42, PBLUC_R_SQUARED 0.632, read-out: LUCIFERASE INFECTION ASSAY - IC50): 3.15 µM
- IC90: 4.08 µM

SMILES: CC(C)Oc1ccc(Nc2cc3c(cn2)cc(-c2cccc(C(F)(F)F)c2)n3C)cc1
- IC50 (PBLUC_HILL_SLOPE 8.74, PBLUC_R_SQUARED 0.3, read-out: LUCIFERASE INFECTION ASSAY - IC50): 4.03 µM
- IC90: 5.18 µM

SMILES: O=C(Nc1ccc(Oc2ccc(F)cc2)nc1)c1cccc(-n2cnnn2)c1
- IC50 (PBLUC_HILL_SLOPE 8.75, PBLUC_R_SQUARED 0.449, read-out: LUCIFERASE INFECTION ASSAY - IC50): 8.72 µM
- IC90: > 10 µM

SMILES: CCCCNC(=O)c1c(NC(=O)c2cccc(Cl)c2Cl)nc2ccccn12
- IC50 (PBLUC_HILL_SLOPE 8.82, PBLUC_R_SQUARED 0.193, read-out: LUCIFERASE INFECTION ASSAY - IC50): 6.71 µM
- IC90: > 8.14 µM

SMILES: COc1cccc2cc(/C=C/c3nc4ccccc4s3)oc12
- IC50 (PBLUC_HILL_SLOPE 8.93, PBLUC_R_SQUARED 0.0906, read-out: LUCIFERASE INFECTION ASSAY - IC50): 3.2 µM
- IC90: 4.1 µM

SMILES: Clc1ccc2c(NCc3ccccc3)ccnc2c1
- IC50 (PBLUC_HILL_SLOPE 8.08, PBLUC_R_SQUARED 0.339, read-out: LUCIFERASE INFECTION ASSAY - IC50): 3.19 µM
- IC90: 4.19 µM
